± gives the uncertainty stated by the source.
Assay: xn = mol fraction of the nth substance listed

CC1(C)OCC(CO)O1 (configuration not stated) + CC(O)CO
viscosity (298.15 K, 101 kPa, x1 = 0.1024): 40.23 ± 0.92 mPa·s | viscosity (298.15 K, 101 kPa, x1 = 0.2011): 35.6 ± 0.82 mPa·s | viscosity (298.15 K, 101 kPa, x1 = 0.2987): 31.55 ± 0.73 mPa·s | viscosity (298.15 K, 101 kPa, x1 = 0.4005): 27.24 ± 0.64 mPa·s | viscosity (298.15 K, 101 kPa, x1 = 0.5): 22.86 ± 0.54 mPa·s | viscosity (298.15 K, 101 kPa, x1 = 0.6041): 19.38 ± 0.46 mPa·s | viscosity (298.15 K, 101 kPa, x1 = 0.6998): 16.97 ± 0.4 mPa·s | viscosity (298.15 K, 101 kPa, x1 = 0.8002): 14.5 ± 0.34 mPa·s | viscosity (298.15 K, 101 kPa, x1 = 0.9017): 12.03 ± 0.28 mPa·s | viscosity (308.15 K, 101 kPa, x1 = 0.1024): 23.19 ± 0.56 mPa·s | viscosity (308.15 K, 101 kPa, x1 = 0.2011): 20.46 ± 0.49 mPa·s | viscosity (308.15 K, 101 kPa, x1 = 0.2987): 18.03 ± 0.44 mPa·s | viscosity (308.15 K, 101 kPa, x1 = 0.4005): 15.53 ± 0.38 mPa·s | viscosity (308.15 K, 101 kPa, x1 = 0.5): 13.03 ± 0.32 mPa·s | viscosity (308.15 K, 101 kPa, x1 = 0.6041): 11.25 ± 0.28 mPa·s | viscosity (308.15 K, 101 kPa, x1 = 0.6998): 10.26 ± 0.25 mPa·s | viscosity (308.15 K, 101 kPa, x1 = 0.8002): 9.248 ± 0.22 mPa·s | viscosity (308.15 K, 101 kPa, x1 = 0.9017): 7.738 ± 0.19 mPa·s | viscosity (318.15 K, 101 kPa, x1 = 0.1024): 14.4 ± 0.35 mPa·s | viscosity (318.15 K, 101 kPa, x1 = 0.2011): 12.56 ± 0.31 mPa·s | viscosity (318.15 K, 101 kPa, x1 = 0.2987): 11.33 ± 0.28 mPa·s | viscosity (318.15 K, 101 kPa, x1 = 0.4005): 9.726 ± 0.24 mPa·s | viscosity (318.15 K, 101 kPa, x1 = 0.5): 8.135 ± 0.2 mPa·s | viscosity (318.15 K, 101 kPa, x1 = 0.6041): 7.174 ± 0.18 mPa·s | viscosity (318.15 K, 101 kPa, x1 = 0.6998): 6.614 ± 0.16 mPa·s | viscosity (318.15 K, 101 kPa, x1 = 0.8002): 6.244 ± 0.15 mPa·s | viscosity (318.15 K, 101 kPa, x1 = 0.9017): 5.465 ± 0.13 mPa·s

CCCCCCCCn1cc[n+](C)c1.O=[N+]([O-])[O-] + CCCCO
viscosity (293.15 K, 101 kPa, x2 = 0.168): 378.7 ± 100 mPa·s

CCN(CC)S(C)(=O)=O + CCO
viscosity (303.15 K, 101.33 kPa, x1 = 0.0656): 100000 ± 16000 mPa·s | viscosity (303.15 K, 101.33 kPa, x1 = 0.1402): 106700 ± 17000 mPa·s | viscosity (303.15 K, 101.33 kPa, x1 = 0.2228): 117500 ± 19000 mPa·s | viscosity (303.15 K, 101.33 kPa, x1 = 0.2849): 127400 ± 21000 mPa·s | viscosity (303.15 K, 101.33 kPa, x1 = 0.3659): 142400 ± 24000 mPa·s | viscosity (303.15 K, 101.33 kPa, x1 = 0.4606): 163500 ± 29000 mPa·s | viscosity (303.15 K, 101.33 kPa, x1 = 0.5135): 176500 ± 32000 mPa·s | viscosity (303.15 K, 101.33 kPa, x1 = 0.5968): 200200 ± 38000 mPa·s | viscosity (303.15 K, 101.33 kPa, x1 = 0.6622): 221700 ± 43000 mPa·s | viscosity (303.15 K, 101.33 kPa, x1 = 0.743): 253300 ± 51000 mPa·s | viscosity (303.15 K, 101.33 kPa, x1 = 0.8454): 302600 ± 65000 mPa·s | viscosity (303.15 K, 101.33 kPa, x1 = 0.9395): 359700 ± 81000 mPa·s

CCCCC + C1CCCCC1
viscosity (293.15 K, 101 kPa, x2 = 0.2248): 0.287 ± 0.008 mPa·s | viscosity (293.15 K, 101 kPa, x2 = 0.3367): 0.327 ± 0.009 mPa·s | viscosity (293.15 K, 101 kPa, x2 = 0.4743): 0.39 ± 0.01 mPa·s | viscosity (293.15 K, 101 kPa, x2 = 0.601): 0.466 ± 0.012 mPa·s | viscosity (293.15 K, 101 kPa, x2 = 0.7202): 0.561 ± 0.015 mPa·s | viscosity (293.15 K, 101 kPa, x2 = 0.8333): 0.685 ± 0.018 mPa·s | viscosity (298.15 K, 101 kPa, x2 = 0.176): 0.264 ± 0.007 mPa·s | viscosity (298.15 K, 101 kPa, x2 = 0.3541): 0.321 ± 0.009 mPa·s | viscosity (298.15 K, 101 kPa, x2 = 0.4788): 0.372 ± 0.01 mPa·s | viscosity (298.15 K, 101 kPa, x2 = 0.6163): 0.447 ± 0.013 mPa·s | viscosity (298.15 K, 101 kPa, x2 = 0.7478): 0.544 ± 0.02 mPa·s | viscosity (298.15 K, 101 kPa, x2 = 0.8754): 0.68 ± 0.026 mPa·s

CC(=O)CC(C)(C)O + O
viscosity (298.15 K, 101 kPa, x1 = 0.017): 1.261 ± 0.033 mPa·s | viscosity (298.15 K, 101 kPa, x2 = 0.2547): 4.143 ± 0.11 mPa·s | viscosity (298.15 K, 101 kPa, x2 = 0.4824): 5.758 ± 0.15 mPa·s | viscosity (298.15 K, 101 kPa, x2 = 0.6067): 6.204 ± 0.17 mPa·s | viscosity (298.15 K, 101 kPa, x2 = 0.7114): 5.917 ± 0.16 mPa·s | viscosity (298.15 K, 101 kPa, x2 = 0.776): 5.315 ± 0.14 mPa·s | viscosity (298.15 K, 101 kPa, x2 = 0.8342): 4.609 ± 0.12 mPa·s | viscosity (298.15 K, 101 kPa, x2 = 0.886): 3.616 ± 0.095 mPa·s | viscosity (298.15 K, 101 kPa, x2 = 0.9237): 2.698 ± 0.07 mPa·s | viscosity (298.15 K, 101 kPa, x2 = 0.9508): 2.022 ± 0.053 mPa·s | viscosity (298.15 K, 101 kPa, x2 = 0.9511): 2.022 ± 0.053 mPa·s | viscosity (298.15 K, 101 kPa, x2 = 0.9717): 1.516 ± 0.039 mPa·s | viscosity (303.15 K, 100 kPa, x2 = 0.1): 2.81 ± 0.067 mPa·s | viscosity (303.15 K, 100 kPa, x2 = 0.2): 3.27 ± 0.079 mPa·s | viscosity (303.15 K, 100 kPa, x2 = 0.3): 3.65 ± 0.089 mPa·s | viscosity (303.15 K, 100 kPa, x2 = 0.4): 4.15 ± 0.1 mPa·s | viscosity (303.15 K, 100 kPa, x2 = 0.5): 4.55 ± 0.11 mPa·s | viscosity (303.15 K, 100 kPa, x2 = 0.6): 4.71 ± 0.12 mPa·s | viscosity (303.15 K, 100 kPa, x2 = 0.7): 4.57 ± 0.11 mPa·s | viscosity (303.15 K, 100 kPa, x2 = 0.8): 4.08 ± 0.096 mPa·s | viscosity (303.15 K, 100 kPa, x2 = 0.9): 2.6 ± 0.062 mPa·s | viscosity (323.15 K, 100 kPa, x2 = 0.1): 1.69 ± 0.042 mPa·s | viscosity (323.15 K, 100 kPa, x2 = 0.2): 1.82 ± 0.047 mPa·s | viscosity (323.15 K, 100 kPa, x2 = 0.3): 2.06 ± 0.054 mPa·s | viscosity (323.15 K, 100 kPa, x2 = 0.4): 2.1 ± 0.058 mPa·s | viscosity (323.15 K, 100 kPa, x2 = 0.5): 2.3 ± 0.063 mPa·s | viscosity (323.15 K, 100 kPa, x2 = 0.6): 2.32 ± 0.065 mPa·s | viscosity (323.15 K, 100 kPa, x2 = 0.7): 2.31 ± 0.063 mPa·s | viscosity (323.15 K, 100 kPa, x2 = 0.8): 2.09 ± 0.057 mPa·s | viscosity (323.15 K, 100 kPa, x2 = 0.9): 1.48 ± 0.038 mPa·s

Reference: the CheMixHub viscosity set
